# Patent US7452704B2, “Dehydrogenase and a gene encoding the same” (priority 2002, dated 2008)
# T1: present dehydrogenase (Pseudomonas putida, UniProt Q5FB93)
# T1 construct: made in house; host or cells: Escherichia coli BL21 (DE3) carrying pENMadh and pSTV28-GDH; crude cellular extract
# T1 sequence (Q5FB93 1-341): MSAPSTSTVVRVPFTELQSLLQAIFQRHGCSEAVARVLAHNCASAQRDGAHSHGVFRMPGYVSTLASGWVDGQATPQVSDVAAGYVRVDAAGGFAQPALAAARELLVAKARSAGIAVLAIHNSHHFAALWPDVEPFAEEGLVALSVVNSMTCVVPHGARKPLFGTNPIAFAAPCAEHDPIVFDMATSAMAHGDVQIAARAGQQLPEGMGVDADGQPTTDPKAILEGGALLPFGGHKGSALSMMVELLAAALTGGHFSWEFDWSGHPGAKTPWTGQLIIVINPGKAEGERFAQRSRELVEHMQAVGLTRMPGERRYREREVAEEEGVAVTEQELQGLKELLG
# T2: N-methyl-L-phenylalanine dehydrogenase (Pseudomonas putida, UniProt Q5FB93)
# T2 construct: made in house
# T2 sequence (Q5FB93 whole entry, looked up): T1 sequence (Q5FB93 1-341)
# B1: present enzyme: novel dehydrogenase from Pseudomonas putida ATCC 12633, polypeptide of SEQ ID No. 1 (protein, listed as Pseudomonas putida)
# chain: T1 sequence (Q5FB93 1-341)
# Tests used:
# Assay type in all cases: biochemical, Pseudomonas putida ATCC 12633
# [1] = biological target: T3, N-methyl-L-phenylalanine dehydrogenase (Pseudomonas putida, UniProt Q5FB93); assay: Substrate specificity for keto acids with NADPH as coenzyme (Example 6); conditions: keto acid 10 mM, NADPH 0.2 mM, methylamine pH 10 60 mM, 37° C.; β-phenylpyruvic acid = 100%
# T3 construct: made in house
# Protocol: (§1) Purified form of the present enzyme was obtained from cloned Escherichia coli cells in the same way as in Example 5.
# Enzyme activity was measured by adding thereto various keto acids shown in Table 3 to a final concentration of 10 mM, NADPH to a final concentration of 0.2 mM, and methylamine adjusted to pH 10 with sulfuric acid to a final concentration of 60 mM, and examining the change in absorbance of the reaction mixture at 340 nm. The reaction temperature during measurement was 37° C. Defining the activity of the enzyme when β-phenylpyruvic acid was used as the substrate as 100%, the results are shown in Table 3 for relative activity.
# [2] = biological target: T3, N-methyl-L-phenylalanine dehydrogenase; assay: Substrate specificity for keto acids with NADH as coenzyme (Example 11); conditions: keto acid 40 mM (β-phenylpyruvic acid 30 mM), NADH 0.3 mM, methylamine 180 mM, pH 10.0, 37° C.; pyruvic acid = 100%
# Protocol: as §1
# Enzyme activity was measured by adding thereto various keto acids shown in Table 4 to a final concentration of 40 mM (except for β-phenylpyruvic acid, which was 30 mM), NADH to a final concentration of 0.3 mM, bis-Tris propane buffer (pH 10.0) to a final concentration of 100 mM, and methylamine to a final concentration of 180 mM, and examining the change in absorbance of the reaction solution at 340 nm. The reaction temperature during measurement was 37° C.
# [3] = biological target: T3, N-methyl-L-phenylalanine dehydrogenase; assay: Reverse reaction with NAD as coenzyme (Example 13); conditions: N-methyl-L-alanine 50 mM, NAD 10 mM, pH 10.0, 37° C.
# Protocol: as §1
# Enzyme activity was measured by adding thereto N-methyl-L-alanine to a final concentration of 50 mM, NAD to a final concentration of 10 mM, and bis-Tris propane buffer (pH 10.0) to a final concentration of 100 mM, and examining the change in absorbance of the reaction mixture at 340 nm. The reaction temperature during measurement was 37° C. The activity was 7.8×10^−3 (u/mg of protein).
# [4] = biological target: T3, N-methyl-L-phenylalanine dehydrogenase; assay: Substrate specificity for amines with NADPH as coenzyme (Example 14)
# Protocol: as §1
# Enzyme activity was measured by adding thereto various amines shown in Table 5 to a final concentration of 60 mM, NADPH to a final concentration of 0.2 mM, and β-phenylpyruvic acid to a final concentration of 10 mM, and examining the change in absorbance of the reaction solution at 340 nm. The reaction temperature during measurement was 37° C.
# [5] = biological target: dehydrogenase represented by the amino acid sequence of SEQ ID No. 1 (Pseudomonas putida, UniProt Q5FB93); assay: Inhibition of dehydrogenase activity by divalent heavy metals; conditions: 0.01 mM
# [6] = biological target: T1, present dehydrogenase; assay: Activity of the present dehydrogenase in crude extract of co-expressing Escherichia coli (Example 18); conditions: crude cellular extract; pH 10.0, 0.2 mM NADPH, 30 mM methylamine, 10 mM sodium pyruvate, 30° C.
# Protocol: Activity of the present dehydrogenase was measured in a reaction mixture containing 100 mM bis-trispropane buffer (pH 10.0), 0.2 mM NADPH, 30 mM methylamine, and 10 mM sodium pyruvate at 30° C. 1 U was defined as the amount of the enzyme capable of oxidizing 1 μmol of NADPH per minute under the above reaction conditions.
# [7] = biological target: T2, N-methyl-L-phenylalanine dehydrogenase; assay: Measurement of optimal pH, NADPH (Example 7); conditions: phenylpyruvic acid and methylamine as substrates, 37° C.
# Protocol: as §1
# Enzyme activity was measured by adding thereto β-phenylpyruvic acid to a final concentration of 10 mM, NADPH to a final concentration of 0.2 mM, and methylamine adjusted to various pH values with sulfuric acid to a final concentration of 60 mM, and examining the change in absorbance of the reaction solution at 340 nm. The reaction temperature during measurement was 37° C. Defining the amount of enzyme that react with 1 micromole of β-phenylpyruvic acid per minute as 1 unit, the results are shown in FIG. 1 for the relationship between the number of units per protein amount (u/mg) and pH. The optimal pH of the reaction was 10.0.
# [8] = biological target: T2, N-methyl-L-phenylalanine dehydrogenase; assay: Thermal stability of the enzyme (Example 10)
# Protocol: The purified enzyme obtained in Example 5 was left at 25° C., 30° C., 35° C., 40° C., 45° C., and 50° C. for 30 minutes, and then measured for activity as in Example 7. The results are shown in FIG. 4 as remaining activity, with the activity of the untreated enzyme (left in ice) defined as 100.
# [9] = biological target: T2, N-methyl-L-phenylalanine dehydrogenase; assay: Measurement of optimal pH when NADH is the coenzyme (Example 12); conditions: pyruvic acid 80 mM, NADH 0.3 mM, methylamine 180 mM, 37° C.
# Protocol: as §1
# Enzyme activity was measured by adding thereto pyruvic acid to a final concentration of 80 mM, NADH to a final concentration of 0.3 mM, and methylamine adjusted to various pH values with sulfuric acid to a final concentration of 180 mM, and examining the change in absorbance of the reaction mixture at 340 nm. The reaction temperature during measurement was 37° C. […] The optimal pH of the reaction was 9.5.
# [10] = biological target: T2, N-methyl-L-phenylalanine dehydrogenase; assay: Optimal working temperature for the enzyme (Example 8); conditions: phenylpyruvic acid and methylamine as substrates, pH 10; listed as dehydrogenase represented by the amino acid sequence of SEQ ID No. 1
# Protocol: Activity was measured using the same reaction conditions as in Example 6 and with methylamine-sulfuric acid (pH 10), except that the temperature was varied. The optimal temperature was 30 to 40° C.
# [11] = amine 60 mM, NADPH 0.2 mM, β-phenylpyruvic acid 10 mM, 37° C., methylamine = 100%
Molecule,Relative activity [1] [%],Relative activity [2] [%],"Relative activity [4, 11] [%]",also measured
CCCC(=O)C(=O)O [2-keto-n-valeric acid],53,7.5,–,–
CCC(=O)C(=O)O [2-ketobutyric acid],98,15,–,–
CCCCC(=O)C(=O)O [2-ketohexanoic acid],174,20,–,–
CCCCCCC(=O)C(=O)O [2-ketooctanoic acid],25,–,–,–
CN[C@@H](C)C(=O)O [N-methyl-L-alanine],–,–,–,activity (reverse reaction) [3]: 7.8×10^−3 u/mg of protein
CCCN [N-propylamine],–,–,1.1,–
N [ammonium],–,–,–,Relative activity [4]: 0%
"[Cl][Cu][Cl] [copper chloride (CuCl2), copper chloride]",–,–,–,effect on dehydrogenase activity [5]: inhibited
NC1CCCCC1 [cyclohexanamine],–,–,1.3,–
CNC [dimethylamine],–,–,1.4,–
CCN [ethylamine],–,–,1.5,–
CC(C)N [isopropylamine],–,–,1.5,–
"[Cl][Hg][Cl] [mercury chloride (HgCl2), mercury chloride]",–,–,–,effect on dehydrogenase activity [5]: inhibited
CN [methylamine],–,–,100,–
O=C(O)C(=O)Cc1ccccc1 [phenylpyruvic acid],100,0,–,–
CC(=O)C(=O)O [pyruvic acid],334,100,–,–
O=C(O)C(=O)CF [β-fluoropyruvic acid],90,4.2,–,–
B1,–,–,–,"activity of the present dehydrogenase [6]: 6.6 U/mg of protein; optimal pH [7]: 10.0; optimal pH ([7]; listed as dehydrogenase of the present invention): around 10; remaining activity ([8]; left 30 minutes, up to 30° C., untreated enzyme = 100): 100%; temperature of thermal stability ([8]; treated at optimal pH (pH 10) for 30 minutes): < 30 °C; optimal pH [9]: 9.5; optimal temperature [10]: around 35 °C"
